Experiments:
FLT3 kinase = molecular target: T1, FLT3 kinase (Homo sapiens, UniProt P36888); test: Competition binding assay, FLT3 Kd
T1 construct: made in house; host or cells: T7 phage display or HEK-293 cells
T1 sequence (P36888 27-993): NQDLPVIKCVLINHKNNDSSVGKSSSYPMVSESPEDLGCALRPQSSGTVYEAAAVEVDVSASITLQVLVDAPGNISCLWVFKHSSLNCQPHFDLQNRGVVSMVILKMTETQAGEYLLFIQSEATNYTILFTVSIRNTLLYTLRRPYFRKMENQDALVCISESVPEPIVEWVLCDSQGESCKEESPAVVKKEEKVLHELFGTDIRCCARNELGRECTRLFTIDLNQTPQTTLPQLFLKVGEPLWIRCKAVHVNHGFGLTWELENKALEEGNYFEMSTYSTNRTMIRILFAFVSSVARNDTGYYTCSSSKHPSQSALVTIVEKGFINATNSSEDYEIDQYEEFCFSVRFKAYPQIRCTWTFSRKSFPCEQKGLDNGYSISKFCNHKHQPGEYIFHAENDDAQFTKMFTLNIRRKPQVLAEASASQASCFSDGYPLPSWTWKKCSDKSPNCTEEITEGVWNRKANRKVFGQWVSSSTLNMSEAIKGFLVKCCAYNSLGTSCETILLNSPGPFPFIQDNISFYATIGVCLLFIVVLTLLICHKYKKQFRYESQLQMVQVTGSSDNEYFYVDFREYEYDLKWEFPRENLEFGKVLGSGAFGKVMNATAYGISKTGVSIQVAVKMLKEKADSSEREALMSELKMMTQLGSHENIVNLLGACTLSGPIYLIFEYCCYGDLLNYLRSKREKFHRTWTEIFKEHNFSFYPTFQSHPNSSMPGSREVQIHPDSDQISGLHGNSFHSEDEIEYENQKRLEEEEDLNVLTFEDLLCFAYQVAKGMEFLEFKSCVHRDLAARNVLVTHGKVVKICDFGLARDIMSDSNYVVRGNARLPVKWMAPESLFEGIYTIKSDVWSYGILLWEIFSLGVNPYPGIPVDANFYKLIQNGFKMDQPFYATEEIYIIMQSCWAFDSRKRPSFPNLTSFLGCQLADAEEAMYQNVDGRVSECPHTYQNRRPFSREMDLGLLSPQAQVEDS
Method in brief: (§1)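 Kinases, either T7 phage fusions or HEK-293-expressed and DNA-tagged, competed for immobilised biotinylated affinity ligand against test compound, 1 h at RT in binding buffer with 6 mM DTT. Bound kinase eluted with 0.5 μM free ligand and quantified by qPCR; Kd from 11-point threefold dilutions.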

KIT kinase = molecular target: T2, KIT kinase (Homo sapiens, UniProt P10721); test: Competition binding assay, KIT Kd
T2 construct: made in house; host or cells: T7 phage display or HEK-293 cells
Method in brief: as §1

CSF-1R kinase = molecular target: T3, CSF-1R kinase (Homo sapiens, UniProt P07333); test: Competition binding assay, CSF-1R Kd
T3 construct: made in house; host or cells: T7 phage display or HEK-293 cells
Method in brief: as §1

MV4-11 cells = test: MV4-11 cell proliferation assay (Alamar Blue); assay type: cell-based; settings: Homo sapiens, MV4-11, 72 h, 3 days incubation
Method in brief: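 Flt3-ITD MV4-11 cells were serum-starved overnight in Iscove's with 0.5% FBS, then given compound at 9 half-log concentrations (0.5% DMSO) for 3 days at 37° C. Alamar Blue reduction was read after 3 h by fluorescence (560/590 nm). IC50 is the mean of duplicates versus negative control.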

[1] = molecular target: kinase panel containing either 359 or 386 distinct kinases; test: Selectivity score S10 from competition binding against a panel of kinases; settings: compounds at 10 μM; for Kinase specificty: S(10)-359 panel: panel of 359 distinct kinases; for Kinase specificty: S(10)-386 panel: panel of 386 distinct kinases
Method in brief: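 Compounds were tested at 10 μM in competition binding against T7 phage-fused or HEK-293-expressed DNA-tagged kinases with immobilized affinity ligands, 1 h at room temperature. Bound kinase was quantified by qPCR as percent of DMSO control; S10 is the fraction of distinct kinases (mutants excluded) with POC below 10.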

T3 sequence (P07333 20-972): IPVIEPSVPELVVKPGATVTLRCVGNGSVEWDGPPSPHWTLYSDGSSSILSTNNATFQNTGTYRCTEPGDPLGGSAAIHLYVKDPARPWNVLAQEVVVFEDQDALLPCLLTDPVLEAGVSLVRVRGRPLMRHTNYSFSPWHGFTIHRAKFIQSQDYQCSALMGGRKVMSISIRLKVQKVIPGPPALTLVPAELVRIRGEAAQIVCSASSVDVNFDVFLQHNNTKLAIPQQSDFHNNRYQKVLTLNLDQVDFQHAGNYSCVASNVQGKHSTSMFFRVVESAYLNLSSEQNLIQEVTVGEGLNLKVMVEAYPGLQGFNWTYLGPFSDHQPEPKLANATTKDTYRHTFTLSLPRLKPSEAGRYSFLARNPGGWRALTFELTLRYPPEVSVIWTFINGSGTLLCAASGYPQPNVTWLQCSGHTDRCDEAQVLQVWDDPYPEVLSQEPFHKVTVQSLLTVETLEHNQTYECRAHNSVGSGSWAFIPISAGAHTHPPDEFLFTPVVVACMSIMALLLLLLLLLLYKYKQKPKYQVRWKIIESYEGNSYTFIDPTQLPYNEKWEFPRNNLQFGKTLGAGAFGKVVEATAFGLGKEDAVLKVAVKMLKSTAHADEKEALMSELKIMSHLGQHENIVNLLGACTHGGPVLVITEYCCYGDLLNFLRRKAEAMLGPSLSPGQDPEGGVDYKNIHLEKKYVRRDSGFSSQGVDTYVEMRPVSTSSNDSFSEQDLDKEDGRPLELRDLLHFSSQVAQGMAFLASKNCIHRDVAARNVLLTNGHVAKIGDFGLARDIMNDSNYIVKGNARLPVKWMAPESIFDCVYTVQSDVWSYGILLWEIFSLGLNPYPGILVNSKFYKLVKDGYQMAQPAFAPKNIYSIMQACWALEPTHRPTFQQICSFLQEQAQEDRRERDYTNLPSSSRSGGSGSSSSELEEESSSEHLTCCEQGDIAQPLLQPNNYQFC
T2 sequence (P10721 26-976): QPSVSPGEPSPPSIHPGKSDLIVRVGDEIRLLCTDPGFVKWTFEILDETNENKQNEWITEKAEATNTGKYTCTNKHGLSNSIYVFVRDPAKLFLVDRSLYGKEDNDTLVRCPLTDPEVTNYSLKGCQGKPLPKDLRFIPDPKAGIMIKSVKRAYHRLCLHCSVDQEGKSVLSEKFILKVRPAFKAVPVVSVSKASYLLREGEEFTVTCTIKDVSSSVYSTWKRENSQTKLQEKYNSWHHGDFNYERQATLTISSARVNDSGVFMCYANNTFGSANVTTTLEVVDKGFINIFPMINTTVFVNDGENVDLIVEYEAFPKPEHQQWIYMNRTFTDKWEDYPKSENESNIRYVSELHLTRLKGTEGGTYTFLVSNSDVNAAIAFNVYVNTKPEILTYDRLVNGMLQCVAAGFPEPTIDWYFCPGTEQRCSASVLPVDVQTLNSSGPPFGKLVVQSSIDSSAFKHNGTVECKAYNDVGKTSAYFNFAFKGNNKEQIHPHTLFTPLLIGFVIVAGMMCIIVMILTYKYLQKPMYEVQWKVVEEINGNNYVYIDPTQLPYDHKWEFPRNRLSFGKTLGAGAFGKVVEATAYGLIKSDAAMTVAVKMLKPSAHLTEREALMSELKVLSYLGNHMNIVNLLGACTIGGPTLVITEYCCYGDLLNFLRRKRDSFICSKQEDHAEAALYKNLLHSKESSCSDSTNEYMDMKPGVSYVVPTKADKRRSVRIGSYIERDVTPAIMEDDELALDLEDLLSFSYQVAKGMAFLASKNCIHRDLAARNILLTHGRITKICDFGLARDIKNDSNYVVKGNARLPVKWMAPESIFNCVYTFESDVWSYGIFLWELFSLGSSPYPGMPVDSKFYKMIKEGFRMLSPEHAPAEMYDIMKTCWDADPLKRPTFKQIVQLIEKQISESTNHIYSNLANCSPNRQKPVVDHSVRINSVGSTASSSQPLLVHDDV

SMILES	Kd (FLT3 kinase)	Kd (KIT kinase)	Kd (CSF-1R kinase)	IC50 (MV4-11 cells)	Kinase specificty: S(10)-359 panel [1]	Kinase specificty: S(10)-386 panel [1]
Cc1ccc(F)c(NC(=O)Nc2ccc(-c3cnc(NCCN4CCOCC4)nc3)cc2)c1 [Example 55, 1-(2-fluoro-5-methylphenyl)-3-(4-(2-(2-morpholinoethylamino)pyrimidin-5-yl)phenyl)urea]	1 to 10 nM	≤ 1 nM	≤ 10 nM	100 to 500 nM	A (A≦0.1)	–
CC(C)(C)c1cc(NC(=O)Nc2ccc(-c3cnc(CCCN4CCOCC4)nc3)cc2)no1 [Example 56, 1-(5-tert-butylisoxazol-3-yl)-3-(4-(2-(3-morpholinopropyl)pyrimidin-5-yl)phenyl)urea]	≤ 1 nM	1 to 10 nM	≤ 10 nM	10 to 100 nM	A (A≦0.1)	–
CN(C)CCNc1ncc(-c2ccc(NC(=O)Nc3cc(C(C)(C)C)on3)cc2)cn1 [Example 57, 1-(5-tert-butylisoxazol-3-yl)-3-(4-(2-(2-(dimethylamino)ethylamino)pyrimidin-5-yl)phenyl)urea]	≤ 1 nM	≤ 1 nM	≤ 10 nM	10 to 100 nM	A (A≦0.1)	–
COCCNc1ncc(-c2ccc(NC(=O)Nc3cc(C(C)(C)C)on3)cc2)cn1 [Example 58, 1-(5-tert-butylisoxazol-3-yl)-3-{4-[2-(2-methoxyethylamino)pyrimidin-5-yl]-phenyl}urea]	≤ 1 nM	≤ 1 nM	≤ 10 nM	1 to 10 nM	B (0.1<B≦0.2 nM)	–
CC(C)(C)c1cc(NC(=O)Nc2ccc(-c3cnc(NCCN4CCOCC4)nc3)cc2F)no1 [Example 59]	≤ 1 nM	≤ 1 nM	≤ 10 nM	1 to 10 nM	B (0.1<B≦0.2 nM)	–
CC(C)(C)c1cc(NC(=O)Nc2ccc(-c3cnc(NCCN4CCCCC4)nc3)cc2)no1 [Example 60, 1-(5-tert-butylisoxazol-3-yl)-3-(4-(2-(2-(piperidin-1-yl)ethylamino)pyrimidin-5-yl)phenyl)urea]	≤ 1 nM	1 to 10 nM	≤ 10 nM	10 to 100 nM	B (0.1<B≦0.2 nM)	–
CC(C)(C)c1cc(NC(=O)Nc2ccc(-c3cnc(NCCN4CCOCC4)nc3)cn2)no1 [Example 61, 1-(5-tert-butylisoxazol-3-yl)-3-{5-[2-(2-morpholin-4-yl-ethylamino)pyrimidin-5-yl]pyridin-2-yl}urea]	≤ 1 nM	≤ 1 nM	≤ 10 nM	10 to 100 nM	A (A≦0.1)	–
CC(C)(C)Nc1ncc(-c2ccc(NC(=O)Nc3cc(C(C)(C)C)on3)nc2)cn1 [Example 62, 1-(5-(2-(tert-butylamino)pyrimidin-5-yl)pyridin-2-yl)-3-(5-tert-butylisoxazol-3-yl)urea]	1 to 10 nM	1 to 10 nM	10 to 100 nM	100 to 500 nM	A (A≦0.1)	–
CC(C)(C)c1cc(NC(=O)Nc2ccc(-c3cnc(NC4CCOCC4)nc3)cn2)no1 [Example 63, 1-(5-tert-butylisoxazol-3-yl)-3-(5-(2-(tetrahydro-2H-pyran-4-ylamino)pyrimidin-5-yl)pyridin-2-yl)urea]	≤ 1 nM	≤ 1 nM	≤ 10 nM	10 to 100 nM	B (0.1<B≦0.2 nM)	–
CC(C)(C)c1cc(NC(=O)Nc2ccc(-c3cnc(NC4CC4)nc3)cn2)no1 [Example 64, 1-(5-tert-butylisoxazol-3-yl)-3-[5-(2-cyclopropylaminopyrimidin-5-yl)-pyridin-2-yl]-urea]	≤ 1 nM	≤ 1 nM	≤ 10 nM	10 to 100 nM	B (0.1<B≦0.2 nM)	–
CC(C)Nc1ncc(-c2ccc(NC(=O)Nc3cc(C(C)(C)C)on3)nc2)cn1 [Example 65, 1-(5-tert-butylisoxazol-3-yl)-3-(5-(2-(isopropylamino)pyrimidin-5-yl)pyridin-2-yl)urea]	≤ 1 nM	≤ 1 nM	≤ 10 nM	10 to 100 nM	B (0.1<B≦0.2 nM)	–
O=C(Cc1cccc(C(F)(F)F)c1)Nc1ccc(-c2cnc(NC3CC3)nc2)cn1 [Example 66, N-(5-(2-(cyclopropylamino)pyrimidin-5-yl)pyridine-2-yl)-2-(3-(trifluoromethyl)phenyl)acetamide]	1 to 10 nM	≤ 1 nM	≤ 10 nM	100 to 500 nM	A (A≦0.1)	–
CC(C)Nc1ncc(-c2ccc(NC(=O)Cc3cccc(C(F)(F)F)c3)nc2)cn1 [Example 67, N-(5-(2-(isopropylamino)pyrimidin-5-yl)pyridin-2-yl)-2-(3-(trifluoromethyl)phenyl)acetamide]	1 to 10 nM	≤ 1 nM	10 to 100 nM	10 to 100 nM	A (A≦0.1)	–
Nc1ccc(-c2ccc(CC(=O)Nc3cc(C4(C(F)(F)F)CC4)on3)cc2)cn1 [Example 73, 2-(4-(6-aminopyridin-3-yl)phenyl)-N-(5-(1-(trifluoromethyl)cyclopropyl)isoxazol-3-yl)acetamide]	≤ 1 nM	1 to 10 nM	≤ 10 nM	≤ 1 nM	–	A (A≦0.1)
CC(C)(C)c1cc(NC(=O)Cc2ccc(-c3ccc(N)nc3)cc2F)no1 [Example 78, 2-(4-(6-aminopyridin-3-yl)-2-fluorophenyl)-N-(5-tert-butylisoxazol-3-yl)acetamide]	≤ 1 nM	1 to 10 nM	≤ 10 nM	≤ 1 nM	–	B (0.1<B≦0.2 nM)
CC(C)(C)c1cc(NC(=O)Cc2ccc(-c3ccc(NCCS(C)(=O)=O)nc3)cc2)no1.CS(=O)(=O)O [Example 92, 5-(4-(2-(5-tert-butylisoxazol-3-ylamino)-2-oxoethyl)phenyl)-N-(2-(methylsulfonyl)ethyl)pyridin-2-aminium methanesulfonate]	≤ 1 nM	1 to 10 nM	≤ 10 nM	1 to 10 nM	–	B (0.1<B≦0.2 nM)
CC(C)(C)c1cc(NC(=O)Cc2ccc(-c3cnc(N)c(F)c3)cc2)no1.CS(=O)(=O)O [Example 94, 5-(4-(2-(5-tert-butylisoxazol-3-ylamino)-2-oxoethyl)phenyl)-3-fluoropyridin-2-aminium methanesulfonate]	1 to 10 nM	1 to 10 nM	≤ 10 nM	≤ 1 nM	–	B (0.1<B≦0.2 nM)
CC(C)(C)c1cc(NC(=O)Cc2ccc(-c3ccc(N)nc3F)cc2)no1.CS(=O)(=O)O [Example 95, 5-(4-(2-(5-tert-butylisoxazol-3-ylamino)-2-oxoethyl)phenyl)-6-fluoropyridin-2-aminium methanesulfonate]	≤ 1 nM	1 to 10 nM	≤ 10 nM	≤ 1 nM	–	A (A≦0.1)
CC(C)(C)c1cc(NC(=O)Cc2ccc(-c3ccc(NCCN4CCOCC4)nc3)cc2)on1.CS(=O)(=O)O [Example 96, 5-(4-(2-(3-tert-butylisoxazol-5-ylamino)-2-oxoethyl)phenyl)-N-(2-morpholinoethyl)pyridin-2-aminium methanesulfonate]	≤ 1 nM	≤ 1 nM	≤ 10 nM	1 to 10 nM	–	B (0.1<B≦0.2 nM)

— patent publication US20130035326A1 (AMBIT BIOSCIENCES CORPORATION, priority 2009, published 2013)
